Values quoted from earlier work, collected in patent publication US20240265995A1, “System of Predicting Sensitivity of Klebsiella against Cefoxitin and Method” (priority 2023, published 2024).

Tested on: carbapenem resistant Klebsiella pneumoniae
Settings: carbapenem resistant Klebsiella pneumoniae isolated from 2014 to 2017 (252/403)

## C[C@@H](O)[C@H]1C(=O)N2C(C(=O)O)=C(S[C@@H]3CN[C@H](C(=O)N(C)C)C3)[C@H](C)[C@H]12 [meropenem]
  resistance rate against meropenem: 62.5%
